According to patent US20250388589A1, “TRICYCLIC HETEROCYCLIC DERIVATIVES, COMPOSITIONS AND USES THEREOF” (Danatlas Pharmaceuticals Co., Ltd., priority 2022, published 2025):

Experiments:
[1] = biological target: hPARG (C-terminal His6-tag) (Homo sapiens (Human), UniProt Q86W56); test: PARG Enzymatic Activity Assay (HTRF); assay type: biochemical; details: hPARG 65 pM final, biotinylated-NAD ribosylated PARP1 8 nM final
Method: PARG Enzymatic Activity Assay HTRF assay was used to measure the ability of compounds to inhibit the activity of PARG in vitro. C-terminal His6-tag PARG expressed in E. coli was purified and stored at −80° C. in aliquots. Assay measurements were performed with 1×buffer comprising 50 mM Tris pH 7.4, 0.1 mg/mL BSA, 3 mM EDTA, 0.4 mM EGTA, 1 mM DTT, 50 mM KCl and 0.01% Tween 20.
Compounds dissolved in DMSO were plated into a 384-well assay plate (PerkinElmer, Catalog #: 6008280) in duplicate using a dispenser (Labcyte, Echo 665), and tested on a 10-point 4-fold serial dilution. Add 5 L Enzyme mix [hPARG (C-terminal His6-tag, 4.2 μM), 65 pM final] to the test wells. The plates were covered and left to incubate for 60 minutes at RT before the addition of 5 L substrate mix [biotinylated-NAD ribosylated PARP1 (6.1 μM), 8 nM final] to initiate reaction. After incubating 10 minutes at RT, add 2.5 L Streptavidin-Eu cryptate (Cisbio, Catalog #: 610SAKLA) and 2.5 L Mab anti 6HIS-XL665 (Cisbio, Catalog #: 61HISXLA) to the plate, and incubate for 60 minutes at RT. Read on a multimode plate reader (PerkinElmer, Envision 2015) in time-resolved fluorescence (TRF) mode, with excitation at 337 nm and emission at both 620 nm and 665 nm. Average HTRF signal of high control (Wells with 1% DMSO) was calculated and as Vehicle Control (VC). Average HTRF signal of low control (no Enzyme) was calculated and as Positive control (PC).
(§1) IC50 values were determined by fitting the data to the standard 4 parameters with Hill Slope using GraphPad Prism software.

[2] = tested on: Kuramochi cell line; test: Cell Viability Assay (Cell Titer-Glo, 7 days); assay type: cell-based; details: 168 h, Kuramochi cells, 7 days incubation, read-out: PARG Cell viability (IC50)
Method: Cell viability studies were conducted in Kuramochi cell line. Cells were maintained in RPMI (Hyclone, Catalog #: SH3080901B) supplemented with 10% v/v FBS (AusGeneX, Catalog #: FBS500-S), 1% v/v Penicillin Streptomycin (Gibco, Catalog #: 15140122). Cells were seeded in 96-well plates (PerkinElmer, Catalog #: 6005680) at a density of 400 cells/well. Compounds dissolved in DMSO were plated in duplicate using a multichannel pipette, and tested on a 9-point 3-fold serial dilution. Cells were incubated for 7 days in a 37° C. active humidified incubator at 5% CO2. Cell viability was measured using the Cell Titer-Glo reagent (Promega, Catalog #: G7573) as manufacturer's instructions. Luminescence signal was measured with a multimode plate reader (Perkin Elmer, Envision 2105 or BMG, ClarioStar Plus). Average values of DMSO treated wells in a plate was calculated and as high control (HC). Average values of only medium in a plate was calculated and as low control (LC)
as §1

Sequence of hPARG (C-terminal His6-tag) (Q86W56 whole entry): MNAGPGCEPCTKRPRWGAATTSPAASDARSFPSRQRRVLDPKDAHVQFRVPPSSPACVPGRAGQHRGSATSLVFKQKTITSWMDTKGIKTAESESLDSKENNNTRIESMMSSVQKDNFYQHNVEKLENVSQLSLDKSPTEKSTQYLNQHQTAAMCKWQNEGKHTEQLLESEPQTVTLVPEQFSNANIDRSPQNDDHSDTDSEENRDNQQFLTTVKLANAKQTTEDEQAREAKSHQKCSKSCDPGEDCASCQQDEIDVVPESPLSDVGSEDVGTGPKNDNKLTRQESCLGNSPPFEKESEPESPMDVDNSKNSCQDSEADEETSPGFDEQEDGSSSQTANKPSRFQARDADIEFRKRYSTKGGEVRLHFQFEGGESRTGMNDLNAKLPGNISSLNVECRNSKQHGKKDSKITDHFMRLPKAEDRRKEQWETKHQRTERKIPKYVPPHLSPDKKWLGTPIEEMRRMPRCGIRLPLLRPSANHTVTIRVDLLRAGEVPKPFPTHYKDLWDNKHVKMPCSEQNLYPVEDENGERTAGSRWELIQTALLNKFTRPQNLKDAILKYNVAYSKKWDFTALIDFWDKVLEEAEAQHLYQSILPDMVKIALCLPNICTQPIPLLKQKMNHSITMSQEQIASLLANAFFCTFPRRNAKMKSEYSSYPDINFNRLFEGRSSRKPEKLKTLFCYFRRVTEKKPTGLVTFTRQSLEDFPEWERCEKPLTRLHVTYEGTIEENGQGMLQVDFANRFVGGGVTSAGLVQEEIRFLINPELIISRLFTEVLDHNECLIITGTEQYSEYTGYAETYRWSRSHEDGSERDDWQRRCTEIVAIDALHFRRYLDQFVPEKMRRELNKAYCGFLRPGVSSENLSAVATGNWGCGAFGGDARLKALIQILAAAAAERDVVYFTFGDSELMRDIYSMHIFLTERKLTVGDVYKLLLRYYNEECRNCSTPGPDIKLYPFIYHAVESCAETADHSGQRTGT

In the case of `CN(C)C(=O)N1CCC(c2ncnc3c2c2cc(F)c(S(=O)(=O)NC4(C)CC4)cc2n3-c2nnc(C(F)F)s2)CC1` [Example 82, 4-(9-(5-(Difluoromethyl)-1,3,4-thiadiazol-2-yl)-6-fluoro-7-(N-(1-methylcyclopropyl)sulfamoyl)-9H-pyrimido[4,5-b]indol-4-yl)-N,N-dimethylpiperidine-1-carboxamide], the IC50 [1] is reported as less than 100 nM and the IC50 [2] is reported as less than 100 nM.

`CC(C)C(=O)N1C[C@H](C)N(c2ncnc3c2c2ccc(S(=O)(=O)NC4(C#N)CC4)cc2n3-c2nnc(C(F)F)s2)C[C@H]1C` [Example 38, N-(1-Cyanocyclopropyl)-9-(5-(difluoromethyl)-1,3,4-thiadiazol-2-yl)-4-((2S,5R)-4-isobutyryl-2,5-dimethylpiperazin-1-yl)-9H-pyrimido[4,5-b]indole-7-sulfonamide] showed an IC50 [1] of less than 100 nM and an IC50 [2] of 100 to 1000 nM.

In the case of `CC(C)C(=O)N1CCN(c2ncnc3c2c2ccc(S(=O)(=O)NC4(C#N)CC4)cc2n3-c2nnc(C(F)F)s2)C[C@H]1C` [Example 60, (R)-N-(1-cyanocyclopropyl)-9-(5-(difluoromethyl)-1,3,4-thiadiazol-2-yl)-4-(4-isobutyryl-3-methylpiperazin-1-yl)-9H-pyrimido[4,5-b]indole-7-sulfonamide], the IC50 [1] is reported as 100 to 1000 nM and the IC50 [2] is reported as 100 to 1000 nM.

`CS(=O)(=O)N1CCC(c2ncnc3c2c2ccc(S(=O)(=O)NC4(C#N)CC4)cc2n3-c2nnc(C(F)F)s2)CC1` [Example 121, N-(1-Cyanocyclopropyl)-9-(5-(difluoromethyl)-1,3,4-thiadiazol-2-yl)-4-(1-(methylsulfonyl)piperidin-4-yl)-9H-pyrimido[4,5-b]indole-7-sulfonamide] was tested, and the IC50 [1] was less than 100 nM and the IC50 [2] was less than 100 nM.

`N#CC1(NS(=O)(=O)c2ccc3c4c(N5CCN(C(=O)N6CCOCC6)CC5)ncnc4n(-c4nnc(C(F)F)s4)c3c2)CC1` [Example 8, N-(1-Cyanocyclopropyl)-9-(5-(difluoromethyl)-1,3,4-thiadiazol-2-yl)-4-(4-(morpholine-4-carbonyl)piperazin-1-yl)-9H-pyrimido[4,5-b]indole-7-sulfonamide] was tested, and the IC50 [1] was less than 100 nM and the IC50 [2] was less than 100 nM.

`N#CC1(NS(=O)(=O)c2ccc3c4c(N5CC6OCCOC6C5)ncnc4n(-c4nnc(C(F)F)s4)c3c2)CC1` (centres unmarked) [Example 165, N-(1-Cyanocyclopropyl)-9-(5-(difluoromethyl)-1,3,4-thiadiazol-2-yl)-4-(hexahydro-6H-[1,4]dioxino[2,3-c]pyrrol-6-yl)-9H-pyrimido[4,5-b]indole-7-sulfonamide] was tested, and the IC50 [1] was 100 to 1000 nM and the IC50 [2] was 100 to 1000 nM.

Compound `CC(C)C(=O)N1CCN(c2ncnc3c2c2ccc(S(=O)(=O)NC4(C#N)CC4)cc2n3-c2nnc(C(F)F)s2)CC1` [Example 11, N-(1-Cyanocyclopropyl)-9-(5-(difluoromethyl)-1,3,4-thiadiazol-2-yl)-4-(4-isobutyrylpiperazin-1-yl)-9H-pyrimido[4,5-b]indole-7-sulfonamide] has an IC50 [1] of less than 100 nM and an IC50 [2] of less than 100 nM.

`N#CC1(NS(=O)(=O)c2ccc3c4c(C5CCN(C(=O)N6CC[C@H](O)C6)CC5)ncnc4n(-c4nnc(C(F)F)s4)c3c2)CC1` [Example 130, (S)—N-(1-Cyanocyclopropyl)-9-(5-(difluoromethyl)-1,3,4-thiadiazol-2-yl)-4-(1-(3-hydroxypyrrolidine-1-carbonyl)piperidin-4-yl)-9H-pyrimido[4,5-b]indole-7-sulfonamide] was tested, and the IC50 [1] was less than 100 nM and the IC50 [2] was 100 to 1000 nM.

`CC(C)C(=O)N1C[C@H](C)N(c2ncnc3c2c2ccc(S(=O)(=O)NC4(C#N)CC4)cc2n3-c2nnc(C(F)F)s2)C[C@@H]1C` [Example 57, N-(1-cyanocyclopropyl)-9-(5-(difluoromethyl)-1,3,4-thiadiazol-2-yl)-4-((2S,5S)-4-isobutyryl-2,5-dimethylpiperazin-1-yl)-9H-pyrimido[4,5-b]indole-7-sulfonamide] was tested, and the IC50 [1] was 100 to 1000 nM and the IC50 [2] was 100 to 1000 nM.

`N#CC1(NS(=O)(=O)c2ccc3c4c(N5CC[C@@H](O)C5)ncnc4n(-c4nnc(C(F)F)s4)c3c2)CC1` [Example 54, (R)-N-(1-Cyanocyclopropyl)-9-(5-(difluoromethyl)-1,3,4-thiadiazol-2-yl)-4-(3-hydroxypyrrolidin-1-yl)-9H-pyrimido[4,5-b]indole-7-sulfonamide] showed an IC50 [1] of 100 to 1000 nM and an IC50 [2] of 100 to 1000 nM.

For `N#CC1(NS(=O)(=O)c2ccc3c4c(C5CCN(C(=O)N6CC[C@@H](O)C6)CC5)ncnc4n(-c4nnc(C(F)F)s4)c3c2)CC1` [Example 129, (R)—N-(1-Cyanocyclopropyl)-9-(5-(difluoromethyl)-1,3,4-thiadiazol-2-yl)-4-(1-(3-hydroxypyrrolidine-1-carbonyl)piperidin-4-yl)-9H-pyrimido[4,5-b]indole-7-sulfonamide], the IC50 [1] was less than 100 nM and the IC50 [2] was 100 to 1000 nM.

Work on `N#CC1(NS(=O)(=O)c2ccc3c4c(N5CCC(O)CC5)ncnc4n(-c4nnc(C(F)F)s4)c3c2)CC1` [Example 189, N-(1-Cyanocyclopropyl)-9-(5-(difluoromethyl)-1,3,4-thiadiazol-2-yl)-4-(4-hydroxypiperidin-1-yl)-9H-pyrimido[4,5-b]indole-7-sulfonamide] yielded an IC50 [1] of less than 100 nM and an IC50 [2] of less than 100 nM.

Compound `CN(C)C(=O)N1CC2CN(c3ncnc4c3c3ccc(S(=O)(=O)NC5(C#N)CC5)cc3n4-c3nnc(C(F)F)s3)CC2C1` (centres unmarked) [Example 28, 5-(7-(N-(1-Cyanocyclopropyl)sulfamoyl)-9-(5-(difluoromethyl)-1,3,4-thiadiazol-2-yl)-9H-pyrimido[4,5-b]indol-4-yl)-N,N-dimethylhexahydropyrrolo[3,4-c]pyrrole-2(1H)-carboxamide] has an IC50 [1] of less than 100 nM and an IC50 [2] of 100 to 1000 nM.

`CC(C)(C)[S+]([O-])N1CCN(c2ncnc3c2c2ccc(S(=O)(=O)NC4(C#N)CC4)cc2n3-c2nnc(C(F)F)s2)CC1` (centres unmarked) [Example 70, 4-(4-(Tert-butylsulfinyl)piperazin-1-yl)-N-(1-cyanocyclopropyl)-9-(5-(difluoromethyl)-1,3,4-thiadiazol-2-yl)-9H-pyrimido[4,5-b]indole-7-sulfonamide] gave an IC50 [1] of less than 100 nM and an IC50 [2] of less than 100 nM.

For `CN1CCC(c2ncnc3c2c2ccc(S(=O)(=O)NC4(C#N)CC4)cc2n3-c2nnc(C(F)F)s2)CC1` [Example 146, N-(1-Cyanocyclopropyl)-9-(5-(difluoromethyl)-1,3,4-thiadiazol-2-yl)-4-(1-methylpiperidin-4-yl)-9H-pyrimido[4,5-b]indole-7-sulfonamide], the IC50 [1] was less than 100 nM and the IC50 [2] was less than 100 nM.

Work on `CON(C)C(=O)N1CCC(c2ncnc3c2c2ccc(S(=O)(=O)NC4(C#N)CC4)cc2n3-c2nnc(C(F)F)s2)CC1` [Example 145, 4-(7-(N-(1-Cyanocyclopropyl)sulfamoyl)-9-(5-(difluoromethyl)-1,3,4-thiadiazol-2-yl)-9H-pyrimido[4,5-b]indol-4-yl)-N-methoxy-N-methylpiperidine-1-carboxamide] yielded an IC50 [1] of less than 100 nM and an IC50 [2] of less than 100 nM.

`CC1(O)CCN(c2ncnc3c2c2ccc(S(=O)(=O)NC4(C#N)CC4)cc2n3-c2nnc(C(F)F)s2)CC1` [Example 48, N-(1-Cyanocyclopropyl)-9-(5-(difluoromethyl)-1,3,4-thiadiazol-2-yl)-4-(4-hydroxy-4-methylpiperidin-1-yl)-9H-pyrimido[4,5-b]indole-7-sulfonamide] showed an IC50 [1] of less than 100 nM and an IC50 [2] of less than 100 nM.

`CN(C)C(=O)c1ccc(-c2ncnc3c2c2ccc(S(=O)(=O)NC4(C#N)CC4)cc2n3-c2nnc(C(F)F)s2)cc1` [Example 43, 4-(7-(N-(1-Cyanocyclopropyl)sulfamoyl)-9-(5-(difluoromethyl)-1,3,4-thiadiazol-2-yl)-9H-pyrimido[4,5-b]indol-4-yl)-N,N-dimethylbenzamide] showed an IC50 [1] of less than 100 nM and an IC50 [2] of 100 to 1000 nM.

With `C[C@@H](N)C(=O)N1CCC(c2ncnc3c2c2ccc(S(=O)(=O)NC4(C#N)CC4)cc2n3-c2nnc(C(F)F)s2)CC1` [Example 127, 4-(1-(D-Alanyl)piperidin-4-yl)-N-(1-cyanocyclopropyl)-9-(5-(difluoromethyl)-1,3,4-thiadiazol-2-yl)-9H-pyrimido[4,5-b]indole-7-sulfonamide] the IC50 [1] was less than 100 nM and the IC50 [2] was 100 to 1000 nM.
